Measured values as given in patent publication US8569509B2, “Thiazole-4-carboxylic acid esters and thioesters as plant protection agents” (priority 2008, dated 2013).

experiment: log P determination (HPLC, calibration with unbranched alkan-2-ones); assay type: physicochemical; conditions: * LC-MS determination in the acidic range at pH 2.7, 0.1% aqueous formic acid and acetonitrile, linear gradient 10% to 95% acetonitrile
Method: The calibration is carried out using unbranched alkan-2-ones (having 3 to 16 carbon atoms) with known log P values (determination of the log P values by the retention times using linear interpolation between two successive alkanones). The lambda-maX values were determined in the maxima of the chromatographic signals using the UV spectra from 200 nm to 400 nm.

Structure (SMILES) | log p
Cc1cc(C)n(C(C)(C)C(=O)N2CCC(c3nc(C(=O)Oc4ccc5ccccc5c4)cs3)CC2)n1 [compound 378] | 3.73*
Cc1cc(C)n(C(C)(C)C(=O)N2CCC(c3nc(C(=O)OC4CCCCC4)cs3)CC2)n1 [compound 370] | 3.78*
Cc1cc(C)n(C(C)(C)C(=O)N2CCC(c3nc(C(=O)OCC4CC4)cs3)CC2)n1 [compound 372] | 3.86*

same assay, conditions: * LC-MS determination in the acidic range at pH 2.7, 0.1% aqueous formic acid and acetonitrile, linear gradient 10% to 95% acetonitrile, reversed-phase C 18

Structure (SMILES) | log p
O=C(OCc1cccs1)c1csc(C2CCN(C(=O)Cn3ccc(C(F)(F)F)n3)CC2)n1 [compound 143] | 2.85*
Cc1c(Cl)c(C(F)(F)F)nn1CC(=O)N1CCC(c2nc(C(=O)OC3CCCC4CCCCC43)cs2)CC1 (stereo not drawn) [compound 150] | 5.44*
Cc1c(Cl)c(C(F)(F)F)nn1CC(=O)N1CCC(c2nc(C(=O)Oc3ccccc3)cs2)CC1 [compound 187] | 3.58*
Cc1c(Cl)c(C(F)(F)F)nn1CC(=O)N1CCC(c2nc(C(=O)OC3CCc4ccccc43)cs2)CC1 (stereo not drawn) [compound 151] | 4.17*
Cc1c(Cl)c(C(F)(F)F)nn1CC(=O)N1CCC(c2nc(C(=O)OCc3cccs3)cs2)CC1 [compound 218] | 3.58*
Cc1c(Cl)c(C(F)(F)F)nn1CC(=O)N1CCC(c2nc(C(=O)OC[Si](C)(C)C)cs2)CC1 [compound 144] | 4.28*
Cc1c(Cl)c(C(F)(F)F)nn1CC(=O)N1CCC(c2nc(C(=O)OC(C)c3ccc(F)cc3)cs2)CC1 (stereo not drawn) [compound 184] | 3.89*
Cc1c(Cl)c(C(F)(F)F)nn1CC(=O)N1CCC(c2nc(C(=O)OC3CCCc4ccccc43)cs2)CC1 (stereo not drawn) [compound 149] | 4.40*

same assay, conditions: * LC-MS determination in the acidic range at pH 2.7, mobile phases 0.1% aqueous formic acid and acetonitrile (0.1% formic acid), linear gradient 10% to 95% acetonitrile; reversed-phase C 18 HPLC

Structure (SMILES) | log p
Cc1cc(C(F)F)n(CC(=O)N2CCC(c3nc(C(=O)OC4CCCCC4)cs3)CC2)n1 [compound 796] | 3.28*
Cc1cc(C(F)(F)F)nn1CC(=O)N1CCC(c2nc(C(=O)Oc3cccc(Oc4ccccc4)c3)cs2)CC1 [compound 824] | 4.18*
Cc1cc(C(F)(F)F)nn1CC(=O)N1CCC(c2nc(C(=O)Oc3cccc4cccnc34)cs2)CC1 [compound 782] | 2.88*
Cc1cc(C(F)(F)F)nn1CC(=O)N1CCC(c2nc(C(=O)OCC#Cc3ccccc3)cs2)CC1 [compound 787] | 3.70*
Cc1cc(C)n(C(C)(C)C(=O)N2CCC(c3nc(C(=O)OC4CC5CCC4(C)C5(C)C)cs3)CC2)n1 (stereo not drawn) [compound 800] | 5.08*
Cc1cc(C(F)(F)F)nn1CC(=O)N1CCC(c2nc(C(=O)Oc3cccc4ocnc34)cs2)CC1 [compound 809] | 2.81*
COc1ccccc1OC(=O)c1csc(C2CCN(C(=O)Cn3nc(C(F)(F)F)cc3C)CC2)n1 [compound 814] | 3.17*
Cc1cc(C(F)(F)F)nn1CC(=O)N1CCC(c2nc(C(=O)OCc3ccc(C(F)(F)F)cc3)cs2)CC1 [compound 776] | 3.86*
COc1ccccc1COC(=O)c1csc(C2CCN(C(=O)Cn3nc(C(F)(F)F)cc3C)CC2)n1 [compound 817] | 3.44*
Cc1cc(C(F)(F)F)nn1CC(=O)N1CCC(c2nc(C(=O)Oc3cccc4cnccc34)cs2)CC1 [compound 794] | 2.18*
Cc1c(Cl)c(C(F)(F)F)nn1C(C)C(=O)N1CCC(c2nc(C(=O)Oc3cccc4ccccc34)cs2)CC1 (racemic) [compound 770] | 4.50*
Cc1cc(C(F)(F)F)nn1CC(=O)N1CCC(c2nc(C(=O)OC(C)c3cccc4ccccc34)cs2)CC1 (stereo not drawn) [compound 785] | 4.16*
Cc1cc(C(F)(F)F)nn1CC(=O)N1CCC(c2nc(C(=O)O[C@H]3CCCc4ccccc43)cs2)CC1 [compound 853] | 4.06*
Cc1cc(C(F)(F)F)nn1CC(=O)N1CCC(c2nc(C(=O)OC3CCC(C(C)(C)C)CC3)cs2)CC1 (stereo not drawn) [compound 828] | 5.19*
Cc1cc(C(F)(F)F)nn1CC(=O)N1CCC(c2nc(C(=O)OCc3c(F)cc(F)cc3F)cs2)CC1 [compound 835] | 3.53*
Cc1cc(C(F)(F)F)nn1CC(=O)N1CCC(c2nc(C(=O)OC3C(C)CCCC3C)cs2)CC1 (stereo not drawn) [compound 831] | 4.40*

same assay, conditions: * LC-MS determination in the acidic range, pH 2.7, 0.1% aqueous formic acid / acetonitrile gradient

Structure (SMILES) | log p
Cc1cc(C(F)(F)F)nn1CC(=O)N1CCCC(c2nc(C(=O)OCc3cccs3)cs2)C1 (stereo not drawn) [compound 293] | 3.23*

same assay, conditions: * LC-MS determination in the acidic range, pH 2.7, 0.1% aqueous formic acid and acetonitrile, linear gradient 10% to 95% acetonitrile

Structure (SMILES) | log p
Cc1cc(C(F)(F)F)nn1CC(=O)N1CCC(c2nc(C(=O)OC(C)c3ccc(F)cc3)cs2)CC1 (stereo not drawn) [compound 41] | 3.60*
O=C(Oc1cccc2ccccc12)c1csc(C2CCN(C(=O)Cn3ccc(C(F)(F)F)n3)CC2)n1 [compound 92] | 3.42*
Cc1cc(C(F)(F)F)nn1CC(=O)N1CCC(c2nc(C(=O)Oc3ccccc3)cs2)CC1 [compound 44] | 3.20*
Cc1cc(C(F)(F)F)nn1CC(=O)N1CCC(c2nc(C(=O)OCc3ccc(C(C)(C)C)cc3)cs2)CC1 [compound 29] | 4.57*
Cc1cc(C(F)(F)F)nn1CC(=O)N1CCC(c2nc(C(=O)OCc3ccc([N+](=O)[O-])cc3)cs2)CC1 [compound 28] | 3.22*
COc1ccc(COC(=O)c2csc(C3CCN(C(=O)Cn4nc(C(F)(F)F)cc4C)CC3)n2)cc1 [compound 19] | 3.30*
Cc1cc(C(F)(F)F)nn1CC(=O)N1CCC(c2nc(C(=O)OCc3ccccn3)cs2)CC1 [compound 80] | 2.21*
CC(OC(=O)c1csc(C2CCN(C(=O)Cn3ccc(C(F)(F)F)n3)CC2)n1)c1ccc(F)cc1 (stereo not drawn) [compound 124] | 3.18*

same assay, conditions: pH 2.7; read-out: log P (pH 2.7)

Structure (SMILES) | chromatographic logP
CC(C)(C)c1cc(C(F)(F)C(F)(F)F)nn1CC(=O)O [V-4, [5-tert-Butyl-3-(pentafluoroethyl)-1H-pyrazol-1-yl]acetic acid] | 2.75
CCOC(=O)c1csc(C2CCNCC2)n1 [VI-1, 4-[4-(Ethoxycarbonyl)-1,3-thiazol-2-yl]piperidinium chloride] | 0.42
O=C(OC1CCCCC1)c1csc(C2CCN(C(=S)Cn3nc(C(F)F)cc3C(F)F)CC2)n1 [compound 854, Cyclohexyl 2-(1-{2-[3,5-bis(difluoromethyl)-1H-pyrazol-1-yl]ethanethioyl}piperidin-4-yl)-1,3-thiazole-4-carboxylate] | 4.23
CCOC(=O)c1csc(C2CCN(C(=O)Cn3nc(C(F)F)cc3C(F)F)CC2)n1 [IV-1, Ethyl 2-(1-{[3,5-bis(difluoromethyl)-1H-pyrazol-1-yl]acetyl}piperidin-4-yl)-1,3-thiazole-4-carboxylate] | 2.52
CC(C)(C)OC(=O)N1CCC(c2nc(C(=O)Oc3cccc4ccccc34)cs2)CC1 [IX-2, tert-Butyl 4-{4-[(1-naphthyloxy)carbonyl]-1,3-thiazol-2-yl}piperidine-1-carboxylate] | 4.5
CC(C)(C)c1cc(C(F)(F)F)nn1CC(=O)O [V-2, [5-tert-Butyl-3-(trifluoromethyl)-1H-pyrazol-1-yl]acetic acid] | 2.45
CCOC(=O)c1csc(C2CCN(C(=O)Cn3nc(C(F)(F)F)cc3C)CC2)n1 [IV-5, Ethyl 2-(1-{[5-methyl-3-(trifluoromethyl)-1H-pyrazol-1-yl]acetyl}piperidin-4-yl)-1,3-thiazole-4-carboxylate] | 2.62
O=C(O)c1csc(C2CCN(C(=O)Cn3nc(C(F)F)cc3C(F)F)CC2)n1 [III-1, 2-(1-{[3,5-Bis(difluoromethyl)-1H-pyrazol-1-yl]acetyl}piperidin-4-yl)-1,3-thiazole-4-carboxylic acid] | 1.71
Cc1cc(C(F)(F)F)nn1CC(=O)N1CCC(c2nc(C(=O)OC3CCCc4ccccc43)cs2)CC1 (stereo not drawn) [compound 224, 1,2,3,4-Tetrahydronaphthalen-1-yl 2-(1-{[5-methyl-3-(trifluoromethyl)-1H-pyrazol-1-yl]acetyl}piperidin-4-yl)-1,3-thiazole-4-carboxylate] | 4.01
Cc1cc(C(F)(F)F)nn1CC(=O)N1CCC(c2nc(C(=O)Sc3cccc4ccccc34)cs2)CC1 [compound 77, S-1-Naphthyl 2-(1-{[5-methyl-3-(trifluoromethyl)-1H-pyrazol-1-yl]acetyl}piperidin-4-yl)-1,3-thiazole-4-carbothioate] | 4.22
O=C(Oc1cccc2ccccc12)c1csc(C2CCN(C(=O)Cn3nc(C(F)F)cc3C(F)F)CC2)n1 [compound 813, 1-Naphthyl 2-(1-{[3,5-bis(difluoromethyl)-1H-pyrazol-1-yl]acetyl}piperidin-4-yl)-1,3-thiazole-4-carboxylate] | 3.64
O=C(Oc1cccc2ccccc12)c1csc(C2CCNCC2)n1 [X-2, 4-{4-[(1-Naphthyloxy)carbonyl]-1,3-thiazol-2-yl}piperidinium chloride] | 1.42

same assay, conditions: pH 7.8; read-out: log P (pH 7.8)

Structure (SMILES) | chromatographic logP
Cc1c(Cl)c(C(F)(F)F)nn1CC(=O)O [V-6, [4-Chloro-5-methyl-3-(trifluoromethyl)-1H-pyrazol-1-yl]acetic acid] | 0.68
CCOC(=O)c1csc(C2CCN(C(=O)C(C)(C)n3nc(C)cc3C)CC2)n1 [IV-4, Ethyl 2-{1-[2-(3,5-dimethyl-1H-pyrazol-1-yl)-2-methylpropanoyl]piperidin-4-yl}-1,3-thiazole-4-carboxylate] | 2.34

same assay, conditions: reversed-phase (C18) HPLC column; * LC-MS determination in the acidic range, pH 2.7, 0.1% aqueous formic acid / acetonitrile gradient; read-out: log p

Structure (SMILES) | chromatographic logP
Cc1cc(C(F)(F)F)nn1CC(=O)N1CCC(c2nc(C(=O)OC3CCCc4ccccc43)cs2)CC1 (stereo not drawn) [compound 224, 1,2,3,4-Tetrahydronaphthalen-1-yl 2-(1-{[5-methyl-3-(trifluoromethyl)-1H-pyrazol-1-yl]acetyl}piperidin-4-yl)-1,3-thiazole-4-carboxylate] | 4.01

same assay, conditions: reversed-phase (C18) HPLC column; * LC-MS determination in the acidic range, pH 2.7, 0.1% aqueous formic acid and acetonitrile, linear gradient 10% to 95% acetonitrile; read-out: log p

Structure (SMILES) | chromatographic logP
Cc1cc(C(F)(F)F)nn1CC(=O)N1CCC(c2nc(C(=O)Sc3cccc4ccccc34)cs2)CC1 [compound 77, S-1-Naphthyl 2-(1-{[5-methyl-3-(trifluoromethyl)-1H-pyrazol-1-yl]acetyl}piperidin-4-yl)-1,3-thiazole-4-carbothioate] | 4.22

same assay, conditions: reversed-phase C18 HPLC column; * LC-MS determination in the acidic range at pH 2.7, mobile phases 0.1% aqueous formic acid and acetonitrile (0.1% formic acid), linear gradient 10% to 95% acetonitrile; reversed-phase C 18 HPLC; read-out: log p

Structure (SMILES) | chromatographic logP
O=C(OC1CCCCC1)c1csc(C2CCN(C(=S)Cn3nc(C(F)F)cc3C(F)F)CC2)n1 [compound 854, Cyclohexyl 2-(1-{2-[3,5-bis(difluoromethyl)-1H-pyrazol-1-yl]ethanethioyl}piperidin-4-yl)-1,3-thiazole-4-carboxylate] | 4.23
O=C(Oc1cccc2ccccc12)c1csc(C2CCN(C(=O)Cn3nc(C(F)F)cc3C(F)F)CC2)n1 [compound 813, 1-Naphthyl 2-(1-{[3,5-bis(difluoromethyl)-1H-pyrazol-1-yl]acetyl}piperidin-4-yl)-1,3-thiazole-4-carboxylate] | 3.64
